≈ marks a conversion by molar mass, not a printed value. Calls of active or inactive are those of the source. No cut-off for these calls is given here.
Assays:
BE(2)-C [1] = assay: Antiproliferative activity against human BE2C cells incubated for 48 hrs by MTT assay; assay type: functional, cell-based
U-87 MG = assay: Antiproliferative activity against human U-87 MG cells incubated for 48 hrs by MTT assay; assay type: functional, cell-based, U-87MG ATCC
HCT-116 = assay: Antiproliferative activity against human HCT-116 cells incubated for 48 hrs by MTT assay; assay type: functional, cell-based; details: HCT-116, 48 h
Histone deacetylase 8 = target: T1, Histone deacetylase 8 (Homo sapiens, UniProt Q9BY41); assay: Inhibition of HDAC8 (unknown origin)
T1 sequence (Q9BY41 whole entry): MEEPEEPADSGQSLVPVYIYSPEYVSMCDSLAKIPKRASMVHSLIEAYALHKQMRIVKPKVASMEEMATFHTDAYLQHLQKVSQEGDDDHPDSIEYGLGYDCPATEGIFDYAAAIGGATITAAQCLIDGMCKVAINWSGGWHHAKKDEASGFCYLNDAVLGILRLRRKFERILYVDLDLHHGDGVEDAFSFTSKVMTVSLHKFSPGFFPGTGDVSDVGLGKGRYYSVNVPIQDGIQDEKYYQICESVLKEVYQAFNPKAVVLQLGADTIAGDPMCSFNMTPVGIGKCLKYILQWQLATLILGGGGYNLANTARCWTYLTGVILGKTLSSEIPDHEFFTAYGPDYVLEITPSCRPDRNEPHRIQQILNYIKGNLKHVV

BE(2)-C [2] = assay: Upregulation of acetylated H3 expression in human BE2C cells by Western blot analysis; assay type: functional, cell-based; details: dose 25-100 nM
BE(2)-C [3] = assay: Upregulation of acetylated tubulin expression in human BE2C cells by Western blot analysis; assay type: functional, cell-based; details: dose 25-100 nM
Tubulin (Sus scrofa) = Tubulin (Sus scrofa) (UniProt P02554+P02550); assay: (§1) Inhibition of tubulin polymerization of pig brain by absorbance based assay; details: dose 0.4-12 µM
Chain of Tubulin (Sus scrofa) (P02550 whole entry, looked up): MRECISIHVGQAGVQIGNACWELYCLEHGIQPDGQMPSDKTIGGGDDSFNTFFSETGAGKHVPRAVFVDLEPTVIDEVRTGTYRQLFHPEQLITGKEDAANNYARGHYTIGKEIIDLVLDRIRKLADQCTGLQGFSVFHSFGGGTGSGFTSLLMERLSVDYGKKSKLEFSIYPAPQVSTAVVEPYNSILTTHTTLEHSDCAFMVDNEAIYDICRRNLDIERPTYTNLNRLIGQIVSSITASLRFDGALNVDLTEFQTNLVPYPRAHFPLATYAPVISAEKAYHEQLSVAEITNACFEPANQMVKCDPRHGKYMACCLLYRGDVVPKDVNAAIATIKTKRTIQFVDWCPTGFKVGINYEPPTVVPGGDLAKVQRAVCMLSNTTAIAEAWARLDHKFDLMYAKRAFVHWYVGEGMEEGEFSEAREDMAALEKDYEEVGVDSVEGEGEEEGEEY
Chain of Tubulin (Sus scrofa) (P02554 whole entry, looked up): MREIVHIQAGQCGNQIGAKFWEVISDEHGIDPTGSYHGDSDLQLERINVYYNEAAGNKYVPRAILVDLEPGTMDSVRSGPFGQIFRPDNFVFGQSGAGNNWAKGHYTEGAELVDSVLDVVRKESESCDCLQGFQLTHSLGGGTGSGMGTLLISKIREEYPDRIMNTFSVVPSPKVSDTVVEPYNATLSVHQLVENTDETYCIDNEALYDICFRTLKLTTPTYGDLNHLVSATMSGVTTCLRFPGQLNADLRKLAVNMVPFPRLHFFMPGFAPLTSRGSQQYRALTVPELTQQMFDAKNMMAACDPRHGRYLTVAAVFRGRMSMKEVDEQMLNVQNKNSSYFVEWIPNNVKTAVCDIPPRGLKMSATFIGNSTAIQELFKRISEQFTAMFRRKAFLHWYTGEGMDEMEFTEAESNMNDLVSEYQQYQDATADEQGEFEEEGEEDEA

Tubulin = Tubulin (Sus scrofa, UniProt P02554+P02550); assay: as §1
[4] = Aqueous solubility of compound at 1 mg incubated for 10 mins; assay type: physicochemical
Tubulin (Homo sapiens) = Tubulin (Homo sapiens) (UniProt P68371+Q9H4B7+P0DPH7+P68366+Q13509+Q71U36+P04350+Q3ZCM7+P07437+P68363+Q9BQE3+Q6PEY2+Q13885+Q9BVA1+Q9BUF5); assay: Inhibition of tubulin polymerization in human BE2C cells assessed as disruption of fibrous microtubule network at 25 to 100 nM incubated for 24 hrs by immunofluorescence based microscopy; assay type: cell-based; details: dose 25-100 nM
BE(2)-C [5] = assay: Inhibition of colony formation in human BE2C cells incubated for 36 hrs by gentian violet staining based assay; assay type: functional, cell-based; details: dose 25-100 nM
BE(2)-C [6] = assay: Inhibition of colony formation in human BE2C cells at 100 nM incubated for 36 hrs by gentian violet staining based assay relative to control; assay type: functional
BE(2)-C [7] = assay: Induction of cell cycle arrest in human BE2C cells assessed as accumulation at G2/M phase incubated for 24 hrs by RNase/PI staining based flow cytometry; assay type: functional
BE(2)-C [8] = assay: Induction of apoptosis in human BE2C cells assessed as viable cells at 25 nM incubated for 48 hrs by annexin V-FITC/PI staining based flow cytometry (reference value: 82.16 %); assay type: functional; details: read-out: Activity
BE(2)-C [9] = assay: Induction of apoptosis in human BE2C cells assessed as early apoptotic cells at 25 nM incubated for 48 hrs by annexin V-FITC/PI staining based flow cytometry (reference value: 4.28 %); assay type: functional
BE(2)-C [10] = assay: Induction of apoptosis in human BE2C cells assessed as late apoptotic cells at 25 nM incubated for 48 hrs by annexin V-FITC/PI staining based flow cytometry (reference value: 9.99 %); assay type: functional
BE(2)-C [11] = assay: Induction of apoptosis in human BE2C cells assessed as viable cells at 50 nM incubated for 48 hrs by annexin V-FITC/PI staining based flow cytometry (reference value: 82.16 %); assay type: functional; details: read-out: Activity
BE(2)-C [12] = assay: Induction of apoptosis in human BE2C cells assessed as necrotic cells at 50 nM incubated for 48 hrs by annexin V-FITC/PI staining based flow cytometry (reference value: 3.57 %); assay type: functional
BE(2)-C [13] = assay: Induction of apoptosis in human BE2C cells assessed as late apoptotic cells at 100 nM incubated for 48 hrs by annexin V-FITC/PI staining based flow cytometry (reference value: 9.99 %); assay type: functional
[14] = Metabolic stability in human liver microsomes assessed as compound remaining incubated for 10 mins; assay type: ADME, Microsome; details: read-out: Stability
[15] = Metabolic stability in human liver microsomes assessed as compound remaining incubated for 30 mins; assay type: ADME, Microsome; details: liver microsomes, read-out: Stability
[16] = Metabolic stability in human liver microsomes assessed as intrinsic clearance; assay type: ADME, Microsome; details: read-out: CLH
[17] = Toxicity in nude mouse xenografted with human BE2C cells assessed as body weight loss at 25 mg/kg, ip treated for every 3 days; assay type: organism-based; details: in vivo, 72 h, time 3 day
[18] = Toxicity in nude mouse xenografted with human BE2C cells assessed as adverse effect at 25 mg/kg, ip treated for every 3 days; assay type: organism-based; details: in vivo, 72 h, time 3 day

SMILES: COc1ccc([C@H]2[C@H](COC(=O)c3ccc(C(=O)NO)cc3)C(=O)N2c2cc(OC)c(OC)c(OC)c2)cc1O
- IC50 (BE(2)-C [1]): 17 nM
- IC50 (U-87 MG): 56 nM
- IC50 (HCT-116): 51 nM
- IC50 (Histone deacetylase 8): 177 nM
- Activity (BE(2)-C [2]): Dose-Dependent Effect
- Activity (BE(2)-C [3]): Dose-Dependent Effect
- inhibition (Tubulin (Sus scrofa)): Dose-Dependent Effect
- IC50 (Tubulin): 5400 nM
- solubility at 10 min [4]: 102 µg/mL (≈ 185 µM)
- inhibition (Tubulin (Homo sapiens)): Active
- inhibition (BE(2)-C [5]): Active
- inhibition at 0.1 µM (BE(2)-C [6]): 100%
- Activity (BE(2)-C [7]): Dose-Dependent Effect
- viability at 0.025 µM (BE(2)-C [8]): 62.1%
- Activity (BE(2)-C [9]): 11.81%
- Activity (BE(2)-C [10]): 19.01%
- viability at 0.05 µM (BE(2)-C [11]): 50.2%
- Activity (BE(2)-C [12]): 8.53%
- Activity (BE(2)-C [13]): 44%
- remaining at 10 min [14]: 80%
- remaining at 0.5 h [15]: 58.2%
- CLint scaled [16]: 18.1 mL/min/kg
- Activity [17]: Non-Toxic
- Activity [18]: Non-Toxic

Source: ChEMBL document CHEMBL5325505, “Discovery of chiral 1,4-diarylazetidin-2-one-based hydroxamic acid derivatives as novel tubulin polymerization inhibitors with histone deacetylase inhibitory activity” (Bioorg Med Chem, 2023)
